Results reported in patent US12583861B2, “Derivatives of imidazo[4,5-d]pyridazine, their preparation and their therapeutic application” (SANOFI, priority 2021, dated 2026).
Structures can show the parent of a compound that is named as a salt.

What was measured:
human TLR8 = target: T1, human TLR8 (Homo sapiens, UniProt Q9NR97); experiment: HEK-Blue hTLR8 reporter cell assay (SEAP, NF-kB/AP-1) for stimulation of human TLR8; type: cell-based; settings: HEK-Blue hTLR8 cells; for EC50: 24 h incubation, SEAP readout, read-out: TLR8_EC50; for activation at 20 µM: 24 h, at 20000 nM
T1 construct: host or cells: HEK293 (HEK-Blue hTLR8)
T1 sequence (Q9NR97 27-1041): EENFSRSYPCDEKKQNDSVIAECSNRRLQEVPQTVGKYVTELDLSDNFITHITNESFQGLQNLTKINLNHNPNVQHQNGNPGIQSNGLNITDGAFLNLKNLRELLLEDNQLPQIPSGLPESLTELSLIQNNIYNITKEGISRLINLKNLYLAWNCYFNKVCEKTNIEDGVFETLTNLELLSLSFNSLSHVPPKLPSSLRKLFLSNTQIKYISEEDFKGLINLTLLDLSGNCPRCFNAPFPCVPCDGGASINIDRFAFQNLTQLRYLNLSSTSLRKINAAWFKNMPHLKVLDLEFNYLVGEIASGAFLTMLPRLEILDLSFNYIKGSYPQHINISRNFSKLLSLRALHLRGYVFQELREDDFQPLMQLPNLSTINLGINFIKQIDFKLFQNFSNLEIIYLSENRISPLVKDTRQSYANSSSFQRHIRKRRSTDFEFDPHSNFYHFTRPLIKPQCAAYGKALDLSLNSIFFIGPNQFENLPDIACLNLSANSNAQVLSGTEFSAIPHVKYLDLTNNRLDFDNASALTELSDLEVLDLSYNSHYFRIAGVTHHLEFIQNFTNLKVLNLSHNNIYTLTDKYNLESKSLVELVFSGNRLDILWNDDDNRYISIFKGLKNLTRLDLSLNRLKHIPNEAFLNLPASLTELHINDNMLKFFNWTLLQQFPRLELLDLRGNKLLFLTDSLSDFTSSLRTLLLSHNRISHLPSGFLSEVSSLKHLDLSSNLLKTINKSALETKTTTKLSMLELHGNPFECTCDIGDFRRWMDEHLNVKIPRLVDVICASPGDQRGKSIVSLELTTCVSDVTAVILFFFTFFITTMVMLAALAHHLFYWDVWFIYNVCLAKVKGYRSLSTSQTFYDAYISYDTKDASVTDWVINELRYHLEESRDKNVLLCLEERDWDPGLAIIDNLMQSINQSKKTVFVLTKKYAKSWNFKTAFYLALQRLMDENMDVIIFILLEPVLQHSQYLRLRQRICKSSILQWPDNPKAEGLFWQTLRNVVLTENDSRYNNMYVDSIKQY
Summary of the method: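 HEK293 cells carrying hTLR8 and a SEAP reporter driven by NF-κB/AP-1 sites were seeded at 3.10E4 cells/well and held 18 to 24 h at 37° C., 5% CO2 before compound addition. Supernatant SEAP measured with QUANTI-Blue™.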

human TLR7 = target: T2, human TLR7 (Homo sapiens, UniProt Q9NYK1); experiment: HEK-Blue hTLR7 reporter cell assay (SEAP, NF-kB/AP-1) for stimulation of human TLR7; type: cell-based; settings: HEK-Blue hTLR7 cells; for EC50: 24 h incubation, SEAP readout, read-out: TLR7_EC50; for activation at 20 µM: 24 h, at 20000 nM
T2 construct: host or cells: HEK293 (HEK-Blue hTLR7)
T2 sequence (Q9NYK1 27-1049): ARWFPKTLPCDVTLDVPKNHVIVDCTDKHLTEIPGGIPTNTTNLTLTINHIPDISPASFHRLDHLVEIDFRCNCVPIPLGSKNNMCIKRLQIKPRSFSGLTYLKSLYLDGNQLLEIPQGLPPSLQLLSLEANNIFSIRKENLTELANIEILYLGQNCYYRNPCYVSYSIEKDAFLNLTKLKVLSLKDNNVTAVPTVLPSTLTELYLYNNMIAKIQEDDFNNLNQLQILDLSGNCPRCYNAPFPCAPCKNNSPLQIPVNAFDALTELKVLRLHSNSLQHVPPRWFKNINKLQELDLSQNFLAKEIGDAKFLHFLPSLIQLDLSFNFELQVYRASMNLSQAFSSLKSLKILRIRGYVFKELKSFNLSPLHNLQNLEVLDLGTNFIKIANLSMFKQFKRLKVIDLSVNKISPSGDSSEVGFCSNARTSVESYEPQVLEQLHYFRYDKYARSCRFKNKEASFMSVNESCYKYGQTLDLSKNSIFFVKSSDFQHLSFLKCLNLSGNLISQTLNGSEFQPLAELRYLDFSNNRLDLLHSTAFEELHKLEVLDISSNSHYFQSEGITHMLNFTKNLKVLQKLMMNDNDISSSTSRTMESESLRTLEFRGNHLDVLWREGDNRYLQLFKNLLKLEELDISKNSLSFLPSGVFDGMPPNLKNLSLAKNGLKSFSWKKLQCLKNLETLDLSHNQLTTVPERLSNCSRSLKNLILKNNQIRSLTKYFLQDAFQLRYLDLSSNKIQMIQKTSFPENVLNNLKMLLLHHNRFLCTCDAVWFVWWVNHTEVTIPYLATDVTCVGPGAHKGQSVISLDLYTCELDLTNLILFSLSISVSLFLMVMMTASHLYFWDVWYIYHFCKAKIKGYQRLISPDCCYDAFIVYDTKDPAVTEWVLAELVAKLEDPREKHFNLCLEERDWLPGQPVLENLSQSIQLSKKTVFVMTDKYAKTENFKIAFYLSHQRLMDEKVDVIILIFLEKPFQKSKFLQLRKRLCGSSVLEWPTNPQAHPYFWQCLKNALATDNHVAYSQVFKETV
Summary of the method: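 HEK293 cells expressing hTLR7 with NF-κB/AP-1-driven SEAP reporter, seeded 3.10E4 cells/well, pre-incubated 18–24 h, then exposed to 3-fold compound dilutions (0.01–20 μM) for 24 h at 37 °C. Supernatant SEAP read with QUANTI-Blue; EC50 as concentration giving 50% activation.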

Row | Structure (SMILES) | EC50 (human TLR8) [µM] | EC50 (human TLR7) [nM] | activation at 20 µM (human TLR8) [%] | activation at 20 µM (human TLR7) [%]
1 | CCCCc1nc2c(N)nnc(OC(C)C)c2n1C[C@H]1CC[C@H](CN)CC1 [Compound 19, 4-(aminomethyl)cyclohexyl)methyl)-2-butyl-7-isopropoxy-1H-imidazo[4,5-d]pyridazin-4-amine dihydrochloride] | > 20 | 32 |  | 
2 | CCCCc1nc2c(N)nnc(/C=C/C(C)C)c2n1Cc1ccc(CN)cc1 [Compound 132, (E)-1-(4-(aminomethyl)benzyl)-2-butyl-7-(3-methylbut-1-en-1-yl)-1H-imidazo[4,5-d]pyridazin-4-amine] | > 18.5 | 296 |  | 
3 | CCCCc1nc2c(N)nnc(O)c2n1Cc1ccc(OC)cc1 [Compound 93, 4-amino-2-butyl-1-(4-methoxybenzyl)-1H-imidazo[4,5-d]pyridazin-7-ol] |  | > 20000 | 17 | 
4 | CCCCc1nc2c(N)nnc(NCc3ccc(CN4CCN(C)CC4)cc3)c2n1C [Compound 91, 2-butyl-1-methyl-N7-(4-((4-methylpiperazin-1-yl)methyl)benzyl)-1H-imidazo[4,5-d]pyridazine-4,7-diamine] |  |  | 10 | 45
5 | CCCCc1nc2c(N)nnc(-c3ccoc3)c2n1Cc1ccc(OC)cc1 [Compound 67, 2-butyl-7-(furan-3-yl)-1-(4-methoxybenzyl)-1H-imidazo[4,5-d]pyridazin-4-amine] | > 20 | 2060 |  | 
6 | CCCCc1nc2c(N)nnc(C3=CCCC3)c2n1Cc1ccc(OC)cc1 [Compound 15, 2-butyl-7-(cyclopent-1-en-1-yl)-1-(4-methoxybenzyl)-1H-imidazo[4,5-d]pyridazin-4-amine hydrochloride] | > 20 | 649 |  | 
7 | Cc1nc2c(N)nnc(OC(C)C)c2n1Cc1ccc(CN)cc1 [Compound 160, 1-(4-(aminomethyl)benzyl)-7-isopropoxy-2-methyl-1H-imidazo[4,5-d]pyridazin-4-amine] |  |  | 18 | 35
8 | CCCCc1nc2c(N)nnc(C3=CCOC3)c2n1Cc1ccc(OC)cc1 [Compound 73, 2-butyl-7-(2,5-dihydrofuran-3-yl)-1-(4-methoxybenzyl)-1H-imidazo[4,5-d]pyridazin-4-amine] | > 20 | 10100 |  | 
9 | CCCc1nc2c(N)nnc(OC(C)C)c2n1Cc1ccc(CN)cc1 [Compound 158, 1-(4-(aminomethyl)benzyl)-7-isopropoxy-2-propyl-1H-imidazo[4,5-d]pyridazin-4-amine] | > 20 | 717 |  | 
10 | CCCCc1nc2c(N)nnc(-c3cccs3)c2n1Cc1ccc(OC)cc1 [Compound 63, 2-butyl-1-(4-methoxybenzyl)-7-(thiophen-2-yl)-1H-imidazo[4,5-d]pyridazin-4-amine] | > 20 | 1180 |  | 
11 | CCCCc1nc2c(N)nnc(NC(C)C)c2[nH]1 [Compound 98, 2-butyl-N7-isopropyl-1H-imidazo[4,5-d]pyridazine-4,7-diamine] |  |  | 6 | 8
12 | CCCCc1nc2c(N)nnc(OC(C)C)c2n1Cc1ccc(CNC)cc1 [Compound 118, 2-butyl-7-isopropoxy-1-(4-((methylamino)methyl)benzyl)-1H-imidazo[4,5-d]pyridazin-4-amine] | 1.49 | 11 |  | 
13 | CCCCc1nc2c(N)nnc(OC(C)C)c2n1CC1CCNCC1 [Compound 165, 2-butyl-7-isopropoxy-1-(piperidin-4-ylmethyl)-1H-imidazo[4,5-d]pyridazin-4-amine] | > 20 | 1570 |  | 
14 | CCCCc1nc2c(N)nnc(Oc3ccccc3)c2n1Cc1ccc(OC)cc1 [Compound 72, 2-butyl-1-(4-methoxybenzyl)-7-phenoxy-1H-imidazo[4,5-d]pyridazin-4-amine] | > 20 | 3760 |  | 
15 | CCCCc1nc2c(N)nnc(N(C)Cc3ccccc3)c2n1C [Compound 90, N7-benzyl-2-butyl-N7,1-dimethyl-1H-imidazo[4,5-d]pyridazine-4,7-diamine] | 12.7 | 10600 |  | 
16 | CCCCc1nc2c(N)nnc(OC(C)C)c2n1Cc1ccc(CNCCOCCOCCOCCOC)cc1 [Compound 121, 2-butyl-4-isopropoxy-3-[[4-[[2-[2-[2-(2-methoxyethoxy)ethoxy]ethoxy]ethylamino]methyl]phenyl]methyl]imidazo[4,5-d]pyridazin-7-amine] | 15.9 | 86 |  | 
17 | CCCCc1nc2c(N)nnc(N3CCCC3)c2n1C[C@H]1CC[C@H](CN)CC1 [Compound 142, 1-(((1R,4R)-4-(aminomethyl)cyclohexyl)methyl)-2-butyl-7-(pyrrolidin-1-yl)-1H-imidazo[4,5-d]pyridazin-4-amine] | > 20 | 2640 |  | 
18 | CCCCc1nc2c(N)nnc(OC(C)C)c2n1CCCCNC1CCOCC1 [Compound 150, 2-butyl-4-isopropoxy-3-[4-(tetrahydropyran-4-ylamino)butyl]imidazo[4,5-d]pyridazin-7-amine hydrochloride salt] | 11.4 | 2210 |  | 
19 | CCCCc1nc2c(N)nnc(N3CCCC3)c2n1C[C@H]1CC[C@H](N)CC1 [Compound 143, 3-[(4-aminocyclohexyl)methyl]-2-butyl-4-pyrrolidin-1-yl-imidazo[4,5-d]pyridazin-7-amine] | > 20 | 11000 |  | 
20 | CCCCc1nc2c(N)nnc(OC(C)C)c2n1CC(C)(CO)CO [Compound 156, 2-[(7-amino-2-butyl-4-isopropoxy-imidazo[4,5-d]pyridazin-3-yl)methyl]-2-methyl-propane-1,3-diol; hydrochloride] | 0.005 | 75 |  | 
21 | CCCCc1nc2c(N)nnc(OC(C)C)c2n1Cc1ccc(CNC(=O)OCC)cc1 [Compound 111, ethyl (4-((4-amino-2-butyl-7-isopropoxy-1H-imidazo[4,5-d]pyridazin-1-yl)methyl)benzyl)carbamate] | > 20 | 99 |  | 
22 | CCCCc1nc2c(N)nnc(OC(C)C)c2n1Cc1ccc(CNC(=O)CCOC)cc1 [Compound 107, N-(4-((4-amino-2-butyl-7-isopropoxy-1H-imidazo[4,5-d]pyridazin-1-yl)methyl)benzyl)-3-methoxypropanamide] | > 20 | 205 |  | 
23 | CCCCc1nc2c(N)nnc(CCC(C)C)c2n1C[C@H]1CC[C@H](N)CC1 [Compound 140, 1-(((1R,4R)-4-aminocyclohexyl)methyl)-2-butyl-7-isopentyl-1H-imidazo[4,5-d]pyridazin-4-amine] | > 20 | 1310 |  | 
